Each structure is given as a SMILES string.

The assay has as its system TLR2 induced IL-6 in peripheral blood mononuclear cells (PBMCs). Put plainly: PBMC TLR2 Induced IL-6 Assay. The assay is classed as cell-based. The conditions noted are these: Homo sapiens, PBMC, 5 h, 10 μg/ml lipoteichoic acid for 5 hours, IL-6 by ELISA, values without asterisk, read-out: Cell IC50. As to the method: PBMC TLR2 Induced IL-6 Assay Peripheral blood mononuclear cells (PBMCs) were isolated from human blood containing the anti-coagulant EDTA (2.5 mM) by centrifugation over a FICOLL® gradient. […] At the end of the culture, plates were centrifuged at 1800 rpm for 10 minutes to pellet the cells. Supernatants were harvested and analyzed for IL-6 levels by ELISA (BD Biosciences, San Jose, Calif.).
On the technique in general: An ELISA detects its analyte on a solid surface through an enzyme-linked reagent.
As to `CC(C)Nc1cc(Nc2ccc(C#N)c(N3CCC(O)C3)n2)ncc1C(=O)NC[C@@H](F)C(C)(C)O` (stereo in doubt) [Example 27, 6-((5-cyano-6-((3S)-3-hydroxy-1-pyrrolidinyl)-2-pyridinyl)amino)-N-((2R)-2-fluoro-3-hydroxy-3-methylbutyl)-4-(isopropylamino)nicotinamide], the IC50 (usually the concentration that inhibits the measured activity by half) was found to be 133 nM.
Under `CNC(=O)c1cnc(Nc2ccc(C#N)cn2)cc1N[C@@H](c1ccccc1)[C@H](O)CO` [Example 1, 6-((5-cyano-2-pyridinyl)amino)-4-(((1S,2S)-2,3-dihydroxy-1-phenylpropyl)amino)-N-methylnicotinamide] stands 550 nM; under `CC(C)Nc1cc(Nc2ccc(C#N)cn2)ncc1C(=O)NC[C@@H](F)C(C)(C)O` [Example 2, 6-((5-cyano-2-pyridinyl)amino)-N-((2R)-2-fluoro-3-hydroxy-3-methylbutyl)-4-(isopropylamino)nicotinamide], 453 nM; under `CC(C)(O)[C@H](F)CNC(=O)c1cnc(Nc2ccc(C#N)cn2)cc1NCC(F)(F)F` [Example 3, 6-((5-cyano-2-pyridinyl)amino)-N-((2R)-2-fluoro-3-hydroxy-3-methylbutyl)-4-((2,2,2-trifluoroethyl)amino)nicotinamide], 789 nM.
The figure for `CCNc1cc(Nc2ccc(C#N)cn2)ncc1C(=O)NC[C@@H](F)C(C)(C)O` [Example 4, 6-((5-cyano-2-pyridinyl)amino)-4-(ethylamino)-N-((2R)-2-fluoro-3-hydroxy-3-methylbutyl)nicotinamide] is 454 nM; for `CNC(=O)[C@H]1CC[C@H](NC(=O)c2cnc(Nc3ccc(C#N)cn3)cc2NC(C)C)CC1` [Example 5, 6-((5-cyano-2-pyridinyl)amino)-4-(isopropylamino)-N-(trans-4-(methylcarbamoyl)cyclohexyl)nicotinamide] it is 588 nM.
The figure for `CC(C)Nc1cc(Nc2ccc(C#N)cn2)ncc1C(=O)N[C@H]1CC[C@H](C(=O)NC2CC2)CC1` [Example 6, 6-((5-cyanopyridin-2-yl)amino)-N-((1R,4R)-4-(cyclopropylcarbamoyl)cyclohexyl)-4-(isopropylamino)nicotinamide] is 648 nM; for `CC(C)Nc1cc(Nc2ccc(C#N)cn2)ncc1C(=O)N[C@H]1CC[C@H](C(=O)N[C@H]2C[C@H]2F)CC1` [Example 7, 6-((5-cyano-2-pyridinyl)amino)-N-(trans-4-(((1S,2R)-2-fluorocyclopropyl)carbamoyl)cyclohexyl)-4-(isopropylamino)nicotinamide] it is 800 nM.
Consider `CC(=O)N1CCC(NC(=O)c2cnc(Nc3ccc(C#N)cn3)cc2NC(C)C)CC1` [Example 8, N-(1-acetyl-4-piperidinyl)-6-((5-cyano-2-pyridinyl)amino)-4-(isopropylamino)nicotinamide], for which the IC50 is 433 nM.
Under `CC(=O)N[C@H]1CC[C@H](NC(=O)c2cnc(Nc3ccc(C#N)cn3)cc2NC(C)C)CC1` [Example 9, N-(trans-4-acetamidocyclohexyl)-6-((5-cyano-2-pyridinyl)amino)-4-(isopropylamino)nicotinamide] stands 116 nM; under `CC(=O)N[C@H]1CC[C@H](NC(=O)c2cnc(Nc3ccc(C#N)cn3)cc2NC2CCOCC2F)CC1` (stereo partly drawn) [Example 11, N-((1R,4R)-4-acetamidocyclohexyl)-6-((5-cyanopyridin-2-yl)amino)-4-(((3 S,4R)-3-fluorotetrahydro-2H-pyran-4-yl)amino)nicotinamide], 320 nM.
The figure for `CC(C)Nc1cc(Nc2ncc(C#N)cc2Cl)ncc1C(=O)NC[C@@H](F)C(C)(C)O` [Example 12, 6-((3-chloro-5-cyano-2-pyridinyl)amino)-N-((2R)-2-fluoro-3-hydroxy-3-methylbutyl)-4-(isopropylamino)nicotinamide] is 50 nM; for `CC(C)(O)[C@H](F)CNC(=O)c1cnc(Nc2ncc(C#N)cc2Cl)cc1NC1CCOCC1` [Example 13, 6-((3-chloro-5-cyano-2-pyridinyl)amino)-N-((2R)-2-fluoro-3-hydroxy-3-methylbutyl)-4-(tetrahydro-2H-pyran-4-ylamino)nicotinamide] it is 420 nM.

The values above are taken from patent US10023562B2, “Heteroaryl substituted pyridyl compounds useful as kinase modulators” (BRISTOL-MYERS SQUIBB COMPANY, priority 2012, dated 2018).
